Test results reported in ChEMBL document CHEMBL4385605, “Synthesis and Structure-Affinity Relationships of Spirocyclic Benzopyrans with Exocyclic Amino Moiety” (J Med Chem, 2019).
Calls of active or inactive are those of the source. No cut-off for these calls is given here.

Key:
[1] = biological target: Sigma non-opioid intracellular receptor 1 (Rattus norvegicus) (UniProt Q9R0C9); test: Antagonist activity at sigma 1 receptor in rat PC12 cells assessed as suppression of opipramol-induced inhibition of KCl-stimulated intracellular calcium influx at 10 nM preincubated for 5 mins followed by opipramol addition for 5 mins and subsequent KCl-stimulation by fura-2-AM dye based fluorescence assay; assay type: cell-based
CYP2D6 = CYP2D6 (Homo sapiens, UniProt P10635); test: Inhibition of recombinant human CYP2D6 at 1 uM by fluorescence assay relative to control; assay type: ADME
[2] = biological target: 5-hydroxytryptamine receptor 2B (Homo sapiens) (UniProt P41595); test: Binding affinity to 5-HT2BR (unknown origin) at 1 uM relative to control
[3] = Metabolic stability in human liver microsomes assessed as parent compound remaining at 1 uM in the presence of NADPH regenerating system after 60 mins by UPLC/MS analysis; assay type: ADME, Microsome; conditions: read-out: Stability
[4] = Selectivity ratio of Ki for displacement of [3H]DTG from sigma2 receptor in rat liver membranes to Ki for displacement of (+)-[3H]pentazocine from sigma 1 receptor in guinea pig brain cortex membranes; assay type: cell membranes
[5] = biological target: Sigma non-opioid intracellular receptor 1 (Rattus norvegicus) (UniProt Q9R0C9); test: Agonist activity at sigma 1 receptor in rat PC12 cells assessed as effect on KCl-induced intracellular calcium flux by fura-2-AM dye based fluorescence assay; assay type: cell-based
[6] = biological target: T1, 5-hydroxytryptamine receptor 1A (Homo sapiens) (UniProt P08908); test: Binding affinity to 5-HT1AR (unknown origin) at 1 uM relative to control
T1 sequence (whole entry): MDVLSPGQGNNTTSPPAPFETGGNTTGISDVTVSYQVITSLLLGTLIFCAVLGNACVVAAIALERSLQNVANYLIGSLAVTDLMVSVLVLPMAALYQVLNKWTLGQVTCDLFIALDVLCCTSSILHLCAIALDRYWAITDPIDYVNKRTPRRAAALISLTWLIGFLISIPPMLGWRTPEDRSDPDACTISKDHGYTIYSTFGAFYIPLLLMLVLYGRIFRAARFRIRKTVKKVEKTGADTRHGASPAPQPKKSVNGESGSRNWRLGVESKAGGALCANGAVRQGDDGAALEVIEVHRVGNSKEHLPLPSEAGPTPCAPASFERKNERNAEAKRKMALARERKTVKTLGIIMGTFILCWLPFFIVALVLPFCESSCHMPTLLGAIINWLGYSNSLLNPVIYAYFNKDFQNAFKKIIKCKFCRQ

[7] = biological target: Sodium-dependent serotonin transporter (Homo sapiens) (UniProt P31645); test: Binding affinity to serotonin transporter (unknown origin) at 1 uM
[8] = biological target: T2, Alpha-1A adrenergic receptor (Homo sapiens) (UniProt P35348); test: Binding affinity to alpha 1a adrenergic receptor (unknown origin) at 1 uM relative to control
T2 sequence (whole entry): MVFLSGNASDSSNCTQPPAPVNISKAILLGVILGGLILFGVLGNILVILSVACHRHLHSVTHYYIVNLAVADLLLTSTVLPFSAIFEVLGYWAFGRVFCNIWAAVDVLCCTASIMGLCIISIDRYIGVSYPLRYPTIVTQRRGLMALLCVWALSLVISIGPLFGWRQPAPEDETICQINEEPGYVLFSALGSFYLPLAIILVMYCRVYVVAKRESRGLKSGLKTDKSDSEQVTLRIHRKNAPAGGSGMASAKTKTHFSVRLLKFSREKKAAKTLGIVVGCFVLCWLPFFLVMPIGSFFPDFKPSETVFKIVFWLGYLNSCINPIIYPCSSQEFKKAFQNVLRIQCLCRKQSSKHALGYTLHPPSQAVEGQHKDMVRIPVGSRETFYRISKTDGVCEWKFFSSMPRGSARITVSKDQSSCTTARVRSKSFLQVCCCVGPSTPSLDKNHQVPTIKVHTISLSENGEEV

Mu-type opioid receptor = Mu-type opioid receptor (Cavia porcellus, UniProt P97266); test: Displacement of [3H]DAMGO from mu opioid receptor in guinea pig brain membranes after 120 mins by scintillation counting analysis; assay type: cell membranes
[9] = biological target: Sigma non-opioid intracellular receptor 1 (Cavia porcellus, UniProt Q60492); test: Displacement of [3H](+)-pentazocine from sigma 1 receptor in guinea pig brain cortex membranes after 120 mins by scintillation counting analysis; assay type: cell membranes
[10] = biological target: Sodium-dependent noradrenaline transporter (Homo sapiens) (UniProt P23975); test: Binding affinity to noradrenaline transporter (unknown origin) at 1 uM
HepG2 = test: Cytotoxicity against human HepG2 cells at 1 to 100 uM incubated for 20 hrs under serum free condition by MTT assay; assay type: cell-based; conditions: hepg2, 20 h
Cytochrome P450 3A4 = Cytochrome P450 3A4 (Homo sapiens, UniProt P08684); test: Inhibition of recombinant human CYP3A4 at 1 uM by fluorescence assay; assay type: ADME; conditions: recombinant enzyme
[11] = biological target: Sigma intracellular receptor 2 (Homo sapiens, UniProt Q5BJF2); test: Displacement of [3H]-di-o-tolylguanidine from sigma2 receptor in human RT4 cell membranes incubated for 120 mins in the presence of sigma1 receptor ligand (+)-pentazocine by scintillation counting method
[12] = biological target: T3, Alpha-2A adrenergic receptor (Homo sapiens) (UniProt P08913); test: Binding affinity to alpha 2a adrenergic receptor (unknown origin) at 1 uM relative to control
T3 sequence (whole entry): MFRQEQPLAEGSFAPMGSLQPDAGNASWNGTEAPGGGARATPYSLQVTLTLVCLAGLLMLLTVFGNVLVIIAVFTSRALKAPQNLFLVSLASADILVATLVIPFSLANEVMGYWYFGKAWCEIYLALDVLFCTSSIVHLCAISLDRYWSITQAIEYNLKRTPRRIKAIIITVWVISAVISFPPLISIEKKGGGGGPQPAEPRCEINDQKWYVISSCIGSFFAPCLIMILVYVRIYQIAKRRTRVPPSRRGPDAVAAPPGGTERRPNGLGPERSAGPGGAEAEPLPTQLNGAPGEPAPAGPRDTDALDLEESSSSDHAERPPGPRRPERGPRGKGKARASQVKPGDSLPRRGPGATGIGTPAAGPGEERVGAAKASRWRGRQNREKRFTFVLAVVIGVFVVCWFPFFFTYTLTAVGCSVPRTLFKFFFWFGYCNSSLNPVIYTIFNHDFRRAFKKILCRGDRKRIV

Chain of Sigma non-opioid intracellular receptor 1 (Rattus norvegicus) (Q9R0C9 whole entry): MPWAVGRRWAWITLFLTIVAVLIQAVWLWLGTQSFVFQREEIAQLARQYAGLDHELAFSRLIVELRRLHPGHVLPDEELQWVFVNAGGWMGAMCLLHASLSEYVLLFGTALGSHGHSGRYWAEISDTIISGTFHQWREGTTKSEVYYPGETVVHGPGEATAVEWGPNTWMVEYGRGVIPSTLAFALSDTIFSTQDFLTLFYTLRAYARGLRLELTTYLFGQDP
Chain of Sigma non-opioid intracellular receptor 1 (Q60492 whole entry): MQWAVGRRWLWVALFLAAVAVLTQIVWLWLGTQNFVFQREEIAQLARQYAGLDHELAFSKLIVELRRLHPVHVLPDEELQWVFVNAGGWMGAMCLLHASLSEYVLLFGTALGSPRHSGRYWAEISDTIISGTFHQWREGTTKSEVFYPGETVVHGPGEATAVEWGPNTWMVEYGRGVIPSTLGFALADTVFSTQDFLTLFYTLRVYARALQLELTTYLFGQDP
Chain of Mu-type opioid receptor (P97266 whole entry): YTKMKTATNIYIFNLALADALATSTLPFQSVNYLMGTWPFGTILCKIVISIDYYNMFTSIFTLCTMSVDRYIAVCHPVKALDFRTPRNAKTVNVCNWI
Chain of Sodium-dependent serotonin transporter (Homo sapiens) (P31645 whole entry, looked up): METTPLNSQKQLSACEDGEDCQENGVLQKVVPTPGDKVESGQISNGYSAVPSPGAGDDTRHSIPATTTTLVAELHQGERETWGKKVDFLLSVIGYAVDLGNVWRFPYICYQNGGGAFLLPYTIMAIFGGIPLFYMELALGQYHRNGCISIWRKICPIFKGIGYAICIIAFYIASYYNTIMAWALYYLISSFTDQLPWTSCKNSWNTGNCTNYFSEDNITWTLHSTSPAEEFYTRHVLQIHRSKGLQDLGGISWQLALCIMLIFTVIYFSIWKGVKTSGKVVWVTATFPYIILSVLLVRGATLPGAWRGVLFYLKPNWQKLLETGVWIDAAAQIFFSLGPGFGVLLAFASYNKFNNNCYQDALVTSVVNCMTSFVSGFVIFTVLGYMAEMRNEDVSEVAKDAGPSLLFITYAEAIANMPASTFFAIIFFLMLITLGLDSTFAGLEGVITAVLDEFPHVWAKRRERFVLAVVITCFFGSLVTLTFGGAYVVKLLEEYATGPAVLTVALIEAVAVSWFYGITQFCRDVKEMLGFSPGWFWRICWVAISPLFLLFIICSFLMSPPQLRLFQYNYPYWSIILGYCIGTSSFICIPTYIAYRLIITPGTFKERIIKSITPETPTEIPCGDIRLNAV
Chain of Sodium-dependent noradrenaline transporter (Homo sapiens) (P23975 whole entry): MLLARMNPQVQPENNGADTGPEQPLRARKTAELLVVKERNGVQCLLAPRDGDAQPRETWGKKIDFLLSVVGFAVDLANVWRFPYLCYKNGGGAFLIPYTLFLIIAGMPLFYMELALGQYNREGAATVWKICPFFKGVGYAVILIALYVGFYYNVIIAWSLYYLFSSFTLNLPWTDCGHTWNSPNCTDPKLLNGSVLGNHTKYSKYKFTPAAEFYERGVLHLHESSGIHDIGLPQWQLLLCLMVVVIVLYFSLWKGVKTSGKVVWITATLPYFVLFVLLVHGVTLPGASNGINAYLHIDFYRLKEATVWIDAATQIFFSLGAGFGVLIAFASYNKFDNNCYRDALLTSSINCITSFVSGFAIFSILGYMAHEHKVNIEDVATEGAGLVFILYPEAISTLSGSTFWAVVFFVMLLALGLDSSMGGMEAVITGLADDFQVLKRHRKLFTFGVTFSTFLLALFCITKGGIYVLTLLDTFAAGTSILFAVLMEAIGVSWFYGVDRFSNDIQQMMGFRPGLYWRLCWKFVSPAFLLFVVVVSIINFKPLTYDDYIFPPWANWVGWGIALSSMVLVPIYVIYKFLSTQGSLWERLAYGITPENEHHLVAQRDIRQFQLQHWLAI
Chain of Sigma intracellular receptor 2 (Q5BJF2 whole entry): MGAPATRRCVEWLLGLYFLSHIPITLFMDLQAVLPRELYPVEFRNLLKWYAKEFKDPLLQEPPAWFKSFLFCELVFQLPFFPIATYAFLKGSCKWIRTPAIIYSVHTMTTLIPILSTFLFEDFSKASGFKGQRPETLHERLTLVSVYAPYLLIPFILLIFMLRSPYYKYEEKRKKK
Chain of CYP2D6 (P10635 whole entry): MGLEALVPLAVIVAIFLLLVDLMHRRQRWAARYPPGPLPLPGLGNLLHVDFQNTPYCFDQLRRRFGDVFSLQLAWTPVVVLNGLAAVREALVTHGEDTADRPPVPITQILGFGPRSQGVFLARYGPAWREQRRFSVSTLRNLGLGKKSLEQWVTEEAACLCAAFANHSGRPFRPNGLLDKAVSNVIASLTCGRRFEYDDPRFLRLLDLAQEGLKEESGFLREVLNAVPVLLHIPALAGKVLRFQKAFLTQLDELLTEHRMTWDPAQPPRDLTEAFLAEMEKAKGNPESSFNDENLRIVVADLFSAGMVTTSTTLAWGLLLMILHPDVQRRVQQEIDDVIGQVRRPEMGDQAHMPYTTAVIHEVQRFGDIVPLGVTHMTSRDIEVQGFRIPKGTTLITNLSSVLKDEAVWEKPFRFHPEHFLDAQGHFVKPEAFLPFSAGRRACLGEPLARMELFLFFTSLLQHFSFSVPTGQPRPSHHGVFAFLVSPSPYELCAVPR
Chain of Cytochrome P450 3A4 (P08684 whole entry): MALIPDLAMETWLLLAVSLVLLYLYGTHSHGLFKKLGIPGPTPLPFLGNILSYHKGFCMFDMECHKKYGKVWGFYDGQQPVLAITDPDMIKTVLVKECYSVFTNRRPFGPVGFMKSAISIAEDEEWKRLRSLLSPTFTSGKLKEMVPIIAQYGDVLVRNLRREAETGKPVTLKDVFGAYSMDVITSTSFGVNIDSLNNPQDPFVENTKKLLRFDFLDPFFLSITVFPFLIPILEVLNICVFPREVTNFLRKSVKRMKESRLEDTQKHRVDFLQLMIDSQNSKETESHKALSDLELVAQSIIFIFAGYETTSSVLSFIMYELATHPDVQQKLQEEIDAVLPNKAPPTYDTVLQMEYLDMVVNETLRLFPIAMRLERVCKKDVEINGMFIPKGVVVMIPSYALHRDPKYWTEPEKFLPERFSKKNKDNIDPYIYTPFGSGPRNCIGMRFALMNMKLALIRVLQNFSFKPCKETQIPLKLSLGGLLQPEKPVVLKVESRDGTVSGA
Chain of 5-hydroxytryptamine receptor 2B (Homo sapiens) (P41595 whole entry): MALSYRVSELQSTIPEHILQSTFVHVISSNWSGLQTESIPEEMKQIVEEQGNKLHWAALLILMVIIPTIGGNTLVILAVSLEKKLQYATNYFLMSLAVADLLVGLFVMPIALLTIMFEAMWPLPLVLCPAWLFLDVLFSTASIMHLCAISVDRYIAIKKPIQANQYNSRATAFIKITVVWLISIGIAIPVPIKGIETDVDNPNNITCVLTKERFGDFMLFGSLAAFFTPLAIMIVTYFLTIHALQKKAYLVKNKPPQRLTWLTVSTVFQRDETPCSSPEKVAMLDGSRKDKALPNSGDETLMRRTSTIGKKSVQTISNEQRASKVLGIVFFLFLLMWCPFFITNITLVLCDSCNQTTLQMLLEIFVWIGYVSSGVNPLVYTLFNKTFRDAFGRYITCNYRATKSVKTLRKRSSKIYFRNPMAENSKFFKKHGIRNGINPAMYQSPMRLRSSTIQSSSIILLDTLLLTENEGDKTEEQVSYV

COC1Cc2ccccc2[C@]2(CC[C@H](N(C)CC3CCCCC3)CC2)O1 (stereo partly specified)
inhibition [1]: Active | inhibition at 1 µM (CYP2D6): > 90% | Activity [2]: 62% | remaining at 1 h, 1 µM [3]: > 50% | Ratio Ki [4]: 5 to 10 | Activity [5]: inactive | Activity [6]: 60% | Activity [7]: inactive | Activity [8]: 68% | Ki (Mu-type opioid receptor): 0.391 µM | Ki [9]: 0.0019 µM | Activity [10]: inactive | Activity (HepG2): Non-Toxic | inhibition (INH) (Cytochrome P450 3A4): Not Active | Ki [11]: 0.013 µM | Activity [12]: 93%
